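Five concentrations, 48 hours, 96-well plates. The concentration for 50% growth inhibition is given as GI50. TGI denotes the concentration required for complete inhibition of growth.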
Tests used:
Test in all cases: growth of human tumour cells (NCI), 48 h
[1] = system: KM12 colon
[2] = system: LOX IMVI melanoma
[3] = system: PC-3 prostate
[4] = system: MALME-3M melanoma
[5] = system: HCT-116 colon
[6] = system: M14 melanoma
[7] = system: A498 renal
[8] = system: TK-10 renal
[9] = system: EKVX NSCLC
[10] = system: U251 CNS
[11] = system: UACC-257 melanoma
[12] = system: HOP-92 NSCLC
[13] = system: MDA-MB-231 breast
[14] = system: CAKI-1 renal
[15] = system: NCI-H23 lung
[16] = system: SK-MEL-2 melanoma
[17] = system: HOP-62 NSCLC
[18] = system: OVCAR-4 ovarian
[19] = system: SK-OV-3 ovarian
[20] = system: OVCAR-8 ovarian
[21] = system: NCI-H226 lung
[22] = system: BT-549 breast
[23] = system: SF-539 CNS
[24] = system: HCC-2998 colon
[25] = system: SK-MEL-28 melanoma
[26] = system: UACC-62 melanoma
[27] = system: NCI-H522 lung
[28] = system: IGROV1 ovarian
[29] = system: SW-620 colon
[30] = system: UO-31 renal
[31] = system: OVCAR-5 ovarian
[32] = system: MOLT-4 leukemia
[33] = system: T-47D breast
[34] = system: HCT-15 colon
[35] = system: HS 578T breast
[36] = system: ACHN renal
[37] = system: A549 NSCLC
[38] = system: SF-268 CNS
[39] = system: DU-145 prostate
[40] = system: CCRF-CEM leukemia
[41] = system: RXF 393 renal
[42] = system: OVCAR-3 ovarian
[43] = system: 786-0 renal
[44] = system: COLO 205 colon
[45] = system: MDA-MB-435
[46] = system: RPMI-8226 leukemia
[47] = system: NCI-H460 lung
[48] = system: SN12C renal
[49] = system: SF-295 CNS
[50] = system: SNB-19 CNS
[51] = system: K-562 leukemia
[52] = system: SNB-75 CNS
[53] = system: MCF7 breast
[54] = system: HT29 colon
[55] = system: SK-MEL-5 melanoma

How did the GI50 [1] turn out when `O=C(NN1C(=O)CSC12CCCCC2)c1[nH]c2ccc(Br)cc2c1-c1ccccc1` was run?
Its GI50 is 16.9 µM.

And the TGI [1]?
The TGI was 33.4 µM.

And the GI50 [2]?
The GI50 was 22 µM.

What about the TGI [2] of the same compound?
Its TGI is 50.3 µM.

And the GI50 [3]?
The GI50 was 16.5 µM.

What about the TGI [3] of the same compound?
Its TGI is 32.2 µM.

And the GI50 [4]?
The GI50 was 20.3 µM.

And the TGI [4]?
Its TGI is 41.3 µM.

And the GI50 [5]?
The GI50 was 16.4 µM.

What about the TGI [5] of the same compound?
The TGI was 35.3 µM.

What about the GI50 [6] of the same compound?
The GI50 was 27 µM.

What about the TGI [6] of the same compound?
Its TGI is 79.7 µM.

What about the GI50 [7] of the same compound?
Its GI50 is 24.1 µM.

And the TGI [7]?
Its TGI is 60.5 µM.

What about the GI50 [8] of the same compound?
Its GI50 is 17 µM.

What about the TGI [8] of the same compound?
Its TGI is 33.2 µM.

What about the GI50 [9] of the same compound?
The GI50 was 48.2 µM.

And the TGI [9]?
Its TGI is greater than 100 µM.

What about the GI50 [10] of the same compound?
Its GI50 is 15.8 µM.

And the TGI [10]?
Its TGI is 31.9 µM.

What about the GI50 [11] of the same compound?
The GI50 was 26.4 µM.

And the TGI [11]?
Its TGI is 72.5 µM.

What about the GI50 [12] of the same compound?
The GI50 was 20.7 µM.

What about the TGI [12] of the same compound?
Its TGI is 42.3 µM.

What about the GI50 [13] of the same compound?
Its GI50 is 20.4 µM.

And the TGI [13]?
Its TGI is 42.3 µM.

And the GI50 [14]?
Its GI50 is 25.5 µM.

And the TGI [14]?
Its TGI is 80 µM.

And the GI50 [15]?
Its GI50 is 19.4 µM.

And the TGI [15]?
The TGI was 41.5 µM.

What about the GI50 [16] of the same compound?
Its GI50 is 36.2 µM.

And the TGI [16]?
Its TGI is greater than 100 µM.

What about the GI50 [17] of the same compound?
Its GI50 is 23.6 µM.

And the TGI [17]?
The TGI was 51.4 µM.

What about the GI50 [18] of the same compound?
Its GI50 is 13.3 µM.

And the TGI [18]?
Its TGI is 39.6 µM.

And the GI50 [19]?
Its GI50 is 46.3 µM.

What about the TGI [19] of the same compound?
Its TGI is greater than 100 µM.

What about the GI50 [20] of the same compound?
Its GI50 is 16.3 µM.

And the TGI [20]?
The TGI was 30.1 µM.

And the GI50 [21]?
The GI50 was 23 µM.

What about the TGI [21] of the same compound?
The TGI was 55.7 µM.

And the GI50 [22]?
The GI50 was 20.1 µM.

And the TGI [22]?
The TGI was 44.4 µM.

And the GI50 [23]?
The GI50 was 21 µM.

And the TGI [23]?
The TGI was 39.9 µM.

And the GI50 [24]?
Its GI50 is 25.2 µM.

And the TGI [24]?
The TGI was 70.4 µM.

And the GI50 [25]?
Its GI50 is 24.8 µM.

And the TGI [25]?
Its TGI is 69 µM.

And the GI50 [26]?
Its GI50 is 10.9 µM.

What about the TGI [26] of the same compound?
Its TGI is 39.8 µM.

What about the GI50 [27] of the same compound?
The GI50 was 18.7 µM.

And the TGI [27]?
The TGI was 49.5 µM.

What about the GI50 [28] of the same compound?
Its GI50 is 11.3 µM.

And the TGI [28]?
The TGI was 28.6 µM.

And the GI50 [29]?
Its GI50 is 34.7 µM.

What about the TGI [29] of the same compound?
The TGI was greater than 100 µM.

And the GI50 [30]?
The GI50 was 22.4 µM.

And the TGI [30]?
Its TGI is 68.9 µM.

And the GI50 [31]?
The GI50 was 31.3 µM.

What about the TGI [31] of the same compound?
The TGI was 95.5 µM.

And the GI50 [32]?
The GI50 was 8.79 µM.

What about the TGI [32] of the same compound?
Its TGI is 46.9 µM.

What about the GI50 [33] of the same compound?
The GI50 was 27.9 µM.

What about the TGI [33] of the same compound?
Its TGI is greater than 100 µM.

And the GI50 [34]?
The GI50 was 17.1 µM.

What about the TGI [34] of the same compound?
Its TGI is 39.7 µM.

And the GI50 [35]?
The GI50 was 23.1 µM.

And the TGI [35]?
The TGI was 66.1 µM.

What about the GI50 [36] of the same compound?
Its GI50 is 22.6 µM.

What about the TGI [36] of the same compound?
The TGI was 58.1 µM.

What about the GI50 [37] of the same compound?
Its GI50 is 15 µM.

And the TGI [37]?
Its TGI is 30.5 µM.

And the GI50 [38]?
The GI50 was 20.3 µM.

And the TGI [38]?
The TGI was 67.1 µM.

What about the GI50 [39] of the same compound?
The GI50 was 19.1 µM.

What about the TGI [39] of the same compound?
The TGI was 38.8 µM.

And the GI50 [40]?
The GI50 was 19.6 µM.

What about the TGI [40] of the same compound?
The TGI was 52.8 µM.

And the GI50 [41]?
Its GI50 is 14.2 µM.

And the TGI [41]?
The TGI was 30.3 µM.

What about the GI50 [42] of the same compound?
The GI50 was 15.5 µM.

What about the TGI [42] of the same compound?
Its TGI is 29.4 µM.

What about the GI50 [43] of the same compound?
The GI50 was 18.9 µM.

What about the TGI [43] of the same compound?
The TGI was 38.9 µM.

What about the GI50 [44] of the same compound?
Its GI50 is 26.9 µM.

What about the TGI [44] of the same compound?
Its TGI is greater than 100 µM.

What about the GI50 [45] of the same compound?
The GI50 was 18.8 µM.

What about the TGI [45] of the same compound?
The TGI was 48.9 µM.

What about the GI50 [46] of the same compound?
The GI50 was 12.7 µM.

What about the TGI [46] of the same compound?
The TGI was 33.2 µM.

And the GI50 [47]?
The GI50 was 20.7 µM.

What about the TGI [47] of the same compound?
The TGI was 57.9 µM.

And the GI50 [48]?
Its GI50 is 17.6 µM.

What about the TGI [48] of the same compound?
The TGI was 34.9 µM.

And the GI50 [49]?
The GI50 was 16.2 µM.

What about the TGI [49] of the same compound?
The TGI was 31.9 µM.

And the GI50 [50]?
The GI50 was 24.1 µM.

And the TGI [50]?
The TGI was 64.2 µM.

And the GI50 [51]?
Its GI50 is 13.4 µM.

What about the TGI [51] of the same compound?
The TGI was 56.6 µM.

And the GI50 [52]?
The GI50 was 15.9 µM.

What about the TGI [52] of the same compound?
The TGI was 33.7 µM.

What about the GI50 [53] of the same compound?
The GI50 was 14.6 µM.

And the TGI [53]?
The TGI was 31.5 µM.

And the GI50 [54]?
Its GI50 is 13.9 µM.

And the TGI [54]?
The TGI was 31.5 µM.

What about the GI50 [55] of the same compound?
The GI50 was 31.2 µM.

What about the TGI [55] of the same compound?
The TGI was greater than 100 µM.
